Assay results as given in US6596718B1, “7-Morpholin-4yl-benzothiazole amide derivatives” (Hoffmann-La Roche Inc., priority 2001, dated 2003).

Row | SMILES | melting point
1 | COc1ccc(N2CCOCC2)c2sc(C(=O)NCc3cccnc3)nc12 [Example 18, 4-Methoxy-7-morpholin-4-yl-benzothiazole-2-carboxylic acid (pyridin-3-ylmethyl)-amide] | 181 to 184 °C
2 | COc1ccc(N2CCOCC2)c2sc(C(=O)NNC(=O)c3ccccc3)nc12 [Example 46, 4-Methoxy-7-morpholin-4-yl-benzothiazole-2-carboxylic acid N′-benzoyl-hydrazide] | > 260 °C
3 | COc1ccc(N2CCOCC2)c2sc(C(=O)NCCNC(=O)c3ccc(Cl)cc3)nc12 [Example 28, 4-Methoxy-7-morpholin-4-yl-benzothiazole-2-carboxylic acid [2-(4-chloro-benzoylamino)-ethyl]-amide] | 237 to 240 °C
4 | COc1ccc(N2CCOCC2)c2sc(C(=O)NCc3ccccc3F)nc12 [Example 21, 4-Methoxy-7-morpholin-4-yl-benzothiazole-2-carboxylic acid 2-fluoro-benzylamide] | 133 to 134 °C
5 | COc1ccc(N2CCOCC2)c2sc(C(=O)NCC(=O)c3cccs3)nc12 [Example 78, 4-Methoxy-7-morpholin-4-yl-benzothiazole-2-carboxylic acid (2-oxo-2-thiophen-2-yl-ethyl)-amide] | 171 to 173 °C
6 | COc1ccc(N2CCOCC2)c2sc(C(=O)NCCc3ccncc3)nc12 [Example 48, 4-Methoxy-7-morpholin-4-yl-benzothiazole-2-carboxylic acid (2-pyridin-4-yl-ethyl)-amide] | 185 to 188 °C
7 | COc1ccc(NC(=O)c2nc3c(OC)ccc(N4CCOCC4)c3s2)cc1 [Example 10, 4-Methoxy-7-morpholin-4-yl-benzothiazole-2-carboxylic acid (4-methoxy-phenyl)-amide] | 148 °C
8 | COc1ccc(N2CCOCC2)c2sc(C(=O)NCCN3C(=O)c4ccccc4C3=O)nc12 [Example 34, 4-Methoxy-7-morpholin-4-yl-benzothiazole-2-carboxylic acid [2-(1,3-dioxo-1,3-dihydro-isoindol-2-yl)-ethyl]-amide] | 231 to 233 °C
9 | COc1ccc(CCNC(=O)c2nc3c(OC)ccc(N4CCOCC4)c3s2)cc1 [Example 68, 4-Methoxy-7-morpholin-4-yl-benzothiazole-2-carboxylic acid [2-(4-methoxy-phenyl)-ethyl]-amide] | 69 to 71 °C
10 | COc1ccc(N2CCOCC2)c2sc(C(=O)NNc3ccccc3)nc12 [Example 51, 4-Methoxy-7-morpholin-4-yl-benzothiazole-2-carboxylic acid N′-phenyl-hydrazide] | 226 to 227 °C
11 | COc1ccc(N2CCOCC2)c2sc(C(=O)NC3CCCCC3)nc12 [Example 5, 4-Methoxy-7-morpholin-4-yl-benzothiazole-2-carboxylic acid cyclohexylamide] | 146 to 147 °C
12 | COc1ccc(N2CCOCC2)c2sc(C(=O)NCc3ccncc3)nc12 [Example 31, 4-Methoxy-7-morpholin-4-yl-benzothiazole-2-carboxylic acid (pyridin-4-ylmethyl)-amide] | 207 to 209 °C
13 | COc1ccc(N2CCOCC2)c2sc(C(=O)NNC(=O)c3ccncc3)nc12 [Example 45, Isonicotinic acid N′-(4-methoxy-7-morpholin-4-yl-benzothiazole-2-carbonyl)-hydrazide] | 171 to 174 °C
14 | COc1cc(OC)cc(C(=O)NNC(=O)c2nc3c(OC)ccc(N4CCOCC4)c3s2)c1 [Example 56, 3,5-Dimethoxy-benzoic acid N′-(4-methoxy-7-morpholin-4-yl-benzothiazole-2-carbonyl)-hydrazide] | 146 to 148 °C
15 | COc1ccc(N2CCOCC2)c2sc(C(=O)N[C@H]3CCCC[C@@H]3O)nc12 (stereo in doubt) [Example 72, 4-Methoxy-7-morpholin-4-yl-benzothiazole-2-carboxylic acid (2-hydroxy-cyclohexyl)-amide] | 110 to 115 °C
16 | COc1ccc(N2CCOCC2)c2sc(C(=O)Nc3ccc(F)cc3)nc12 [Example 2, 4-Methoxy-7-morpholin-4-yl-benzothiazole-2-carboxylic Acid (4-Fluoro-phenyl)-amide] | 206 to 208 °C
17 | COc1cccc(CNC(=O)c2nc3c(OC)ccc(N4CCOCC4)c3s2)c1 [Example 27, 4-Methoxy-7-morpholin-4-yl-benzothiazole-2-carboxylic acid 3-methoxy-benzylamide] | 140 to 144 °C
18 | COc1ccc(N2CCOCC2)c2sc(C(=O)NCCc3ccccn3)nc12 [Example 38, 4-Methoxy-7-morpholin-4-yl-benzothiazole-2-carboxylic acid (2-pyridin-2-yl-ethyl)-amide] | 184 to 185 °C
19 | COc1ccc(N2CCOCC2)c2sc(C(=O)NC3CCCC3)nc12 [Example 8, 4-Methoxy-7-morpholin-4-yl-benzothiazole-2-carboxylic acid cyclopentylamide] | 174 to 175 °C
20 | COc1ccc(N2CCOCC2)c2sc(C(=O)NCC3CC3)nc12 [Example 24, 4-Methoxy-7-morpholin-4-yl-benzothiazole-2-carboxylic acid cyclopropylmethyl-amide] | 152 to 153 °C
21 | COc1ccc(N2CCOCC2)c2sc(C(=O)NCc3cccc(F)c3)nc12 [Example 20, 4-Methoxy-7-morpholin-4-yl-benzothiazole-2-carboxylic acid 3-fluoro-benzylamide] | 152 to 153 °C

Next, values leading:

Row | melting point | SMILES
22 | 133 to 135 °C | COc1ccc(N2CCOCC2)c2sc(C(=O)NC[C@@H]3CCCC[C@H]3O)nc12 (stereo in doubt) [Example 43, 4-Methoxy-7-morpholin-4-yl-benzothiazole-2-carboxylic acid (2-hydroxy-cyclohexylmethyl)-amide]
23 | 175 to 176 °C | COc1ccc(N2CCOCC2)c2sc(C(=O)NCc3ccc(Cl)cc3)nc12 [Example 7, 4-Methoxy-7-morpholin-4-yl-benzothiazole-2-carboxylic acid 4-chloro-benzylamide]
24 | 200 to 202 °C | COc1ccc(N2CCOCC2)c2sc(C(=O)NCCCN3C(=O)c4ccccc4C3=O)nc12 [Example 32, 4-Methoxy-7-morpholin-4-yl-benzothiazole-2-carboxylic acid [3-(1,3-dioxo-1,3-dihydro-isoindol-2-yl)-propyl]-amide]
25 | 206 to 207 °C | COc1ccc(N2CCOCC2)c2sc(C(=O)Nc3ccncc3)nc12 [Example 53, 4-Methoxy-7-morpholin-4-yl-benzothiazole-2-carboxylic acid pyridin-4-ylamide]
26 | 114 to 118 °C | COc1ccc(N2CCOCC2)c2sc(C(=O)NCCCCN3C(=O)c4ccccc4C3=O)nc12 [Example 33, 4-Methoxy-7-morpholin-4-yl-benzothiazole-2-carboxylic acid [4-(1,3-dioxo-1,3-dihydro-isoindol-2-yl)-butyl]-amide]
27 | 180 to 183 °C | COc1ccccc1C(=O)NCCNC(=O)c1nc2c(OC)ccc(N3CCOCC3)c2s1 [Example 37, 4-Methoxy-7-morpholin-4-yl-benzothiazole-2-carboxylic acid [2-(2-methoxy-benzoylamino)-ethyl]-amide]
28 | 206 to 208 °C | COc1ccc(N2CCOCC2)c2sc(C(=O)NCC(=O)c3ccc4c(c3)OCCO4)nc12 [Example 75, 4-Methoxy-7-morpholin-4-yl benzothiazole-2-carboxylic acid [2-(2,3-dihydro-benzo[1,4]dioxin-6-yl)-2-oxo-ethyl]-amide]
29 | 225 to 226 °C | COc1ccc(N2CCOCC2)c2sc(C(=O)NNC(=O)c3ccccn3)nc12 [Example 52, Pyridine-2-carboxylic acid N′-(4-methoxy-7-morpholin-4-yl-benzothiazole-2-carbonyl)-hydrazide]
30 | 166 to 168 °C | COc1ccc(N2CCOCC2)c2sc(C(=O)NC(c3ccccc3)c3ccccc3)nc12 [Example 47, 4-Methoxy-7-morpholin-4-yl-benzothiazole-2-carboxylic acid benzhydryl-amide]
31 | 173 to 174 °C | COc1ccc(N2CCOCC2)c2sc(C(=O)NCc3ccc(C)o3)nc12 [Example 70, 4-Methoxy-7-morpholin-4-yl-benzothiazole-2-carboxylic acid (5-methyl-furan-2-ylmethyl)-amide]
32 | 229 to 232 °C | COc1ccc(N2CCOCC2)c2sc(C(=O)NCC(=O)c3ccsc3)nc12 [Example 79, 4-Methoxy-7-morpholin-4-yl-benzothiazole-2-carboxylic acid (2-oxo-2-thiophen-3-yl-ethyl)-amide]
33 | 222 to 224 °C | COc1ccc(N2CCOCC2)c2sc(C(=O)NNC(=O)c3cccnc3)nc12 [Example 44, Nicotinic acid N′-(4-methoxy-7-morpholin-4-yl-benzothiazole-2-carbonyl)-hydrazide]
34 | 171 to 172 °C | COc1ccc(N2CCOCC2)c2sc(C(=O)NCC3CCCO3)nc12 (centres unmarked) [Example 41, 4-Methoxy-7-morpholin-4-yl-benzothiazole-2-carboxylic acid (tetrahydro-furan-2-ylmethyl)-amide]
35 | 178 to 180 °C | COc1ccc(N2CCOCC2)c2sc(C(=O)NC[C@H]3CCCC[C@H]3O)nc12 (stereo in doubt) [Example 42, 4-Methoxy-7-morpholin-4-yl-benzothiazole-2-carboxylic acid (2-hydroxy-cyclohexylmethyl)-amide]
36 | 174 to 175 °C | COc1ccc(N2CCOCC2)c2sc(C(=O)NCc3cccs3)nc12 [Example 23, 4-Methoxy-7-morpholin-4-yl-benzothiazole-2-carboxylic acid (thiophen-2-ylmethyl)-amide]
37 | 190 to 193 °C | COc1ccc(N2CCOCC2)c2sc(C(=O)NCc3ccc4c(c3)OCO4)nc12 [Example 14, 4-Methoxy-7-morpholin-4-yl-benzothiazole-2-carboxylic acid (benzo[1,3]dioxol-5-ylmethyl)-amide]
38 | 129 to 131 °C | COc1ccc(N2CCOCC2)c2sc(C(=O)NCCc3ccccc3C)nc12 [Example 74, 4-Methoxy-7-morpholin-4-yl-benzothiazole-2-carboxylic acid (2-o-tolyl-ethyl)-amide]
